Earlier results on 1 compound are cited in patent US20260240770A1, “LIQUID FORMULATION COMPRISING TRILOSTANE” (NORBROOK LABORATORIES LIMITED, priority 2023, published 2026).

For this data set the following is noted: low water solubility and high membrane permeability.

Take `C[C@]12CC[C@H]3[C@@H](CC[C@@]45O[C@@H]4C(O)=C(C#N)C[C@]35C)[C@@H]1CC[C@@H]2O` [Trilostane, 4α,5-epoxy-3,17β-dihydroxy-5α-androst-2-ene-2-carbonitrile]: the BCS class entry is “Class Two”.
